Data: the supplement of paper PMC11451515

Test system: P12-Ichikawa
Test: cell viability relative to DMSO control; higher = less cytotoxic
Details: 48 h
In short: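 Viability values are per-plate percentages of DMSO wells, with background from cell-free wells. Library compounds in DMSO were pin-dosed, in an 11-point threefold series from 47 μM to 0.79 nM, onto NOMO1 or SEM (500 cells/well) or P12-Ichikawa (1000 cells/well) leukemia cells in 1536-well plates (5 μl). Those cells had been adapted for at least four passages in each medium, and CellTiter-Glo One luminescence was read after 48 h at 37°C.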

[1] = HPLM + 10% dialyzed FBS, 0.000781 µM
[2] = HPLM + 10% dialyzed FBS, 0.00234 µM
[3] = HPLM + 10% dialyzed FBS, 0.00702 µM
[4] = HPLM + 10% dialyzed FBS, 0.0211 µM
[5] = HPLM + 10% dialyzed FBS, 0.0632 µM
[6] = HPLM + 10% dialyzed FBS, 0.19 µM
[7] = HPLM + 10% dialyzed FBS, 0.569 µM
[8] = HPLM + 10% dialyzed FBS, 1.71 µM
[9] = HPLM + 10% dialyzed FBS, 5.12 µM
[10] = HPLM + 10% dialyzed FBS, 15.4 µM
[11] = HPLM + 10% dialyzed FBS, 46.1 µM
[12] = RPMI 5 mM glucose + 10% FBS, 0.000781 µM
[13] = RPMI 5 mM glucose + 10% FBS, 0.00234 µM
[14] = RPMI 5 mM glucose + 10% FBS, 0.00702 µM
[15] = RPMI 5 mM glucose + 10% FBS, 0.0211 µM
[16] = RPMI 5 mM glucose + 10% FBS, 0.0632 µM
[17] = RPMI 5 mM glucose + 10% FBS, 0.19 µM
[18] = RPMI 5 mM glucose + 10% FBS, 0.569 µM
[19] = RPMI 5 mM glucose + 10% FBS, 1.71 µM
[20] = RPMI 5 mM glucose + 10% FBS, 5.12 µM
[21] = RPMI 5 mM glucose + 10% FBS, 15.4 µM
[22] = RPMI 5 mM glucose + 10% FBS, 46.1 µM
[23] = RPMI 5 mM glucose + 10% dialyzed FBS, 0.000781 µM
[24] = RPMI 5 mM glucose + 10% dialyzed FBS, 0.00234 µM
[25] = RPMI 5 mM glucose + 10% dialyzed FBS, 0.00702 µM
[26] = RPMI 5 mM glucose + 10% dialyzed FBS, 0.0211 µM
[27] = RPMI 5 mM glucose + 10% dialyzed FBS, 0.0632 µM
[28] = RPMI 5 mM glucose + 10% dialyzed FBS, 0.19 µM
[29] = RPMI 5 mM glucose + 10% dialyzed FBS, 0.569 µM
[30] = RPMI 5 mM glucose + 10% dialyzed FBS, 1.71 µM
[31] = RPMI 5 mM glucose + 10% dialyzed FBS, 5.12 µM
[32] = RPMI 5 mM glucose + 10% dialyzed FBS, 15.4 µM
[33] = RPMI 5 mM glucose + 10% dialyzed FBS, 46.1 µM

| Compound | cell viability [1] | cell viability [2] | cell viability [3] | cell viability [4] | cell viability [5] | cell viability [6] | cell viability [7] | cell viability [8] | cell viability [9] | cell viability [10] | cell viability [11] | cell viability [12] | cell viability [13] | cell viability [14] | cell viability [15] | cell viability [16] | cell viability [17] | cell viability [18] | cell viability [19] | cell viability [20] | cell viability [21] | cell viability [22] | cell viability [23] | cell viability [24] | cell viability [25] | cell viability [26] | cell viability [27] | cell viability [28] | cell viability [29] | cell viability [30] | cell viability [31] | cell viability [32] | cell viability [33] |
| --- | --- | --- | --- | --- | --- | --- | --- | --- | --- | --- | --- | --- | --- | --- | --- | --- | --- | --- | --- | --- | --- | --- | --- | --- | --- | --- | --- | --- | --- | --- | --- | --- | --- |
| Cn1cc(-c2ccncc2)c(-c2ccc(OCc3ccc4ccccc4n3)cc2)n1 | 120% | 121% | 122% | 121% | 126% | 123% | 115% | 118% | 109% | 91.5% | 75.5% | 121% | 127% | 120% | 132% | 122% | 121% | 120% | 120% | 104% | 65.8% | 53.7% | – | – | – | – | – | – | – | – | – | – | – |
| CC(C)c1ccc2oc3nc(N)c(C(=O)O)cc3c(=O)c2c1 | 120% | 119% | 119% | 124% | 130% | 132% | 128% | 131% | 125% | 129% | 118% | – | – | – | – | – | – | – | – | – | – | – | – | – | – | – | – | – | – | – | – | – | – |
| C=C1C[C@@]2(O)O[C@@]3(C[C@H]2C(C)C)[C@@H](C)CC[C@@H]13 | 110% | 119% | 112% | 129% | 117% | 123% | 122% | 112% | 117% | 125% | 118% | 113% | 127% | 114% | 126% | 129% | 134% | 119% | 123% | 122% | 128% | 132% | 112% | 109% | 116% | 117% | 122% | 135% | 113% | 125% | 121% | 127% | 128% |
| COc1ccc(-c2c(-c3ccc(O)cc3O)n[nH]c2C)cc1 | 108% | 101% | 117% | 112% | 114% | 106% | 112% | 107% | 105% | 101% | 78.1% | 99.8% | 105% | 105% | 100% | 110% | 106% | 105% | 112% | 102% | 95.6% | 68.6% | 101% | 106% | 110% | 111% | 107% | 113% | 113% | 113% | 105% | 101% | 89.5% |
| CN1C(=O)COc2c(C(=O)NC3CN4CCC3CC4)cc(Cl)cc21 (stereo unspecified) | 87.1% | 107% | 104% | 105% | 109% | 109% | 99.6% | 96.9% | 94.2% | 107% | 111% | 95% | 115% | 110% | 119% | 132% | 73% | 66.4% | 86.1% | 95.7% | 95.6% | 121% | 95.8% | 98.4% | 101% | 97.8% | 101% | 95.4% | 98.9% | 96.9% | 92.6% | 89.2% | 99% |
| C[C@H]1CCC/C=C/C2C[C@H](O)C[C@H]2[C@H](O)/C=C/C(=O)O1 (stereo partly specified) | 90.4% | 102% | 94.8% | 70.4% | 32.8% | 18.7% | 9.39% | 4.66% | 2.87% | 2.17% | 2.02% | 74% | 75.3% | 81.5% | 60.1% | 10.9% | 9.73% | 6.57% | 4.48% | 1.69% | 1.14% | 1.83% | 104% | 81.9% | 86.1% | 62.7% | 12.7% | 12.8% | 6.09% | 4.16% | 3.23% | 2.71% | 1.83% |
| CC1=C(C)C2=C(S1)[N]3C(=NN=C3[C@H](CC(=O)OC(C)(C)C)/N=C2/C4=CC=C(Cl)C=C4)C | 98.4% | 98.2% | 97.1% | 100% | 92.7% | 79.5% | 39.4% | 57.7% | 35.1% | 15.4% | 6.39% | 97.6% | 90.6% | 91.5% | 97.6% | 85.8% | 81.1% | 43% | 52.4% | 37.1% | 22.4% | 13.6% | 92.2% | 92.2% | 87.8% | 95% | 90.6% | 78.9% | 39.9% | 50.4% | 40.1% | 17.3% | 7.9% |
| C[C@@]12OC(=O)[C@@]1(NC(=O)[C@@H]2CCCl)[C@@H](O)[C@H]\3CCC\C=C3 | 96.4% | 100% | 104% | 107% | 109% | 74.8% | 6.01% | 5.06% | 3.28% | 2.14% | 0.616% | 97.4% | 109% | 108% | 106% | 107% | 69.8% | 7.03% | 4.69% | 3.15% | 2.13% | 0.774% | 94% | 110% | 105% | 104% | 108% | 54.4% | 6.75% | 4.56% | 3.02% | 2.27% | 0.713% |
